# Patent publication US6242461A, “Use of aryl substituted azabenzimidazoles in the treatment of HIV and AIDS related diseases” (Pfizer Inc., priority 2000, dated 2001)
# Target: HIV-1 RT (Human immunodeficiency virus type 1 group M subtype B, UniProt P04585)
# Experiment: HIV Reverse Transcriptase Assay (RNA-dependent DNA polymerase activity, 3H-dCTP incorporation)
# Assay type: biochemical
# Conditions: 60 nM HIV-RT, tRNA-Lys3 primer/viral RNA template, 45 minutes, room temperature, 0.7% DMSO
# Description: Utilizing the Reverse Transcriptase (RT) Assay described below, compounds can be tested for their ability to inhibit the RNA-dependent DNA polymerase activity of HIV-1 RT. Compounds described in the Examples which appear below, were so tested.
# HIV Reverse Transcriptase Assay:
# HIV reverse transcriptase activity is assessed by following the incorporation of ^3 H-dCTP into newly synthesized DNA using the natural tRNA^Lys3 primer annealed to a viral RNA template sequence. Assays are performed in a final volume of 100 μL in 96-well plates. Briefly, assay buffer (50 mM Tris pH 7.5, 50 mM NaCl, 5 mM MgCl2), primer/template (10-60 nM), dNTPs (dATP, dGTP, dTTP; 100 nM each), and ^3 H-dCTP (180 nM) are combined, and the reaction is initiated with 60 nM HIV-RT. After 45 minutes at room temperature, the assay is quenched with 0.1 M EDTA and harvested onto a DEAE filter using a Skatron Harvester with a solution of 5% Na2 HPO4 -2% sodium pyrophosphate. The filter mats are dried and placed into a plastic bag with 10 ml of scintillant, and counted on a Wallac BetaPlate reader. Non-specific activity is determined by adding 0.1 M EDTA at the start of the assay.
# To assess the activity of compounds on HIV-RT activity, compounds are added to the assay prior to addition of enzyme. Compounds are dissolved in 14% DMSO (0.7% final), and tested at 32, 10, 3.2, 1.0, 0.32, and 0.10 μM in triplicate. % Inhibition is calculated according to the following equation: […]
row,SMILES,inhibition at 10 µM [%]
1,"Cc1nc2cnccc2n1-c1ccc(Cn2c(=O)sc3ccccc32)cc1 [Example 1, 3-[4-(2-Methyl-imidazo[4,5-c]pyridin-1-yl)-benzyl]-3H-benzothiazol-2-one]",78
2,"Cc1nc2cnccc2n1-c1ccc(Cn2c(=O)sc3cc(F)ccc32)cc1 [Example 2, 6-Fluoro-3-[4-(2-methyl-imidazo[4,5-c]pyridin-1-yl)-benzyl]-3H-benzothiazol-2-one]",76
3,"CCc1nc2cnccc2n1-c1ccc(Cn2c(=O)sc3ccccc32)cc1 [Example 3, 3-[4-(2-Ethyl-imidazo[4,5-c]pyridin-1-yl)-benzyl]-3H-benzothiazol-2-one]",72
4,"CC(C)c1nc2cnccc2n1-c1ccc(Cn2c(=O)sc3ccccc32)cc1 [Example 4, 3-[4-(2-lsopropyl-imidazo[4,5-c]pyridin-1-yl)-benzyl]-3H-benzothiazol-2-one]",23
5,"Cc1ccc2c(c1)sc(=O)n2Cc1ccc(-n2c(C)nc3cnccc32)cc1 [Example 5, 6-Methyl-3-[4-(2-methyl-imidazo[4,5-c]pyridin-1-yl)-benzyl]-3H-benzothiazol-2-one]",30
6,"COc1ccc2c(c1)sc(=O)n2Cc1ccc(-n2c(C)nc3cnccc32)cc1 [Example 6, 6-Methoxy-3-[4-(2-methyl-imidazo[4,5-c]pyridin-1-yl)-benzyl]-3H-benzothiazol-2-one]",22
7,"Cc1nc2cnccc2n1-c1ccc(Cn2c(=O)sc3cc(Cl)ccc32)cc1 [Example 7, 6-Chloro-3-[4-(2-methyl-imidazo[4,5-c]pyridin-1-yl)-benzyl]-3H-benzothiazol-2-one]",45
8,"COc1ccc2sc(=O)n(Cc3ccc(-n4c(C)nc5cnccc54)cc3)c2c1 [Example 8, 5-Methoxy-3-[4-(2-methyl-imidazo[4,5-c]pyridin-1-yl)-benzyl]-3H-benzothiazol-2-one]",41
9,"Cc1nc2cnccc2n1-c1ccc(Cn2c(=O)oc3ccccc32)cc1 [Example 13, 3-[4-(2-Methyl-imidazo[4,5-c]pyridin-1-yl)-benzyl]-3H-benzooxazol-2-one]",61
10,"Cc1nc2ccccc2n1Cc1ccc(-n2c(C)nc3cnccc32)cc1 [Example 16, 2-Methyl-1-[4-(2-methyl-benzoimidazol-1-ylmethyl)-phenyl]1H-imidazo[4,5-c]pyridine]",20
